We go through 9 molecules from ChEMBL document CHEMBL5465560, “Selectivity Literature for EUbOPEN Chemogenomic Library” (2024).

A word on the IC50: it is the midpoint of a concentration-inhibition curve. The low end stands for inhibition by little substance, the high end for a need for much substance.

For experiment [1], the target named is T1, Tyrosine-protein kinase ZAP-70 (Homo sapiens) (UniProt P43403).
T1 sequence (whole entry): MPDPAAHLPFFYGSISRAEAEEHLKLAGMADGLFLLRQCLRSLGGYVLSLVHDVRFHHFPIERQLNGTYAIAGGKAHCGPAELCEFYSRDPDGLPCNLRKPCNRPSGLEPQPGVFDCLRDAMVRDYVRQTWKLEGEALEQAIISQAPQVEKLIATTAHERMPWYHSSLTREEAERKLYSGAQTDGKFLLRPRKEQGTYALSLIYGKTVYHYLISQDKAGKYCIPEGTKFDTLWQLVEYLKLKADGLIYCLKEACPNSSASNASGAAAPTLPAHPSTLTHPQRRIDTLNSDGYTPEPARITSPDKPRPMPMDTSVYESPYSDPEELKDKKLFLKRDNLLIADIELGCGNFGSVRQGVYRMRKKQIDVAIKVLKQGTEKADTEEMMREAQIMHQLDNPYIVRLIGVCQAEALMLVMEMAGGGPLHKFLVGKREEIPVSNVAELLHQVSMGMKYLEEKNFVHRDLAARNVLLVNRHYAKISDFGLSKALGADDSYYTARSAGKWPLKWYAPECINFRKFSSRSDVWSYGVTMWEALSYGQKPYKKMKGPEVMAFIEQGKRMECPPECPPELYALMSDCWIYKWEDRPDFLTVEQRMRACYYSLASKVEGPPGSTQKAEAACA
Particulars: at 10 µM.

The target in experiment [2] is T2, Hormonally up-regulated neu tumor-associated kinase (Homo sapiens) (UniProt P57058).
T2 sequence (whole entry): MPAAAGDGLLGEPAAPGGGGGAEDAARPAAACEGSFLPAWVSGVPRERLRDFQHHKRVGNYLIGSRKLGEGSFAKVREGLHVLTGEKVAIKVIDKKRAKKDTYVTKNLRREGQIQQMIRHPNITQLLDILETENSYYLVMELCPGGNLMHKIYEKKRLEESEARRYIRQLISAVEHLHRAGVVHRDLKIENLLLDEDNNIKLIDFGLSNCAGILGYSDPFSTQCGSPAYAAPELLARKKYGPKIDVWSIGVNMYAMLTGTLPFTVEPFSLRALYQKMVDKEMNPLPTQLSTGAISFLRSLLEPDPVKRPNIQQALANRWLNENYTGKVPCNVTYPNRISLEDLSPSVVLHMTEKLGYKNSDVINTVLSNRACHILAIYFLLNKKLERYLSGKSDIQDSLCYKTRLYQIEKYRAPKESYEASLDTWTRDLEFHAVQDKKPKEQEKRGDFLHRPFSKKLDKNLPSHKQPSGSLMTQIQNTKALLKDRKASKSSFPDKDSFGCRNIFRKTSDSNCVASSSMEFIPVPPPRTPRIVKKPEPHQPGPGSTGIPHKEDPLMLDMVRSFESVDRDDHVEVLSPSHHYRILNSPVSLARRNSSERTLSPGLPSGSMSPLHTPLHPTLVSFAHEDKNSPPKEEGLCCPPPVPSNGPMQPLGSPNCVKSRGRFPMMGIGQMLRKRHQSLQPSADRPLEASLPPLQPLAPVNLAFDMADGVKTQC
Put plainly: Selectivity interaction (KinomeScan (DiscoverX)) EUB0001079a HUNK. Particulars: at 1 µM.

For experiment [3], the target named is Dual specificity tyrosine-phosphorylation-regulated kinase 1A (Homo sapiens, UniProt Q13627). Put plainly: Selectivity interaction (KinomeScan (DiscoverX)) EUB0001079a DYRK1A. Particulars: at 1 µM.
Experiment [4] concerns the target T3, Serine/threonine-protein kinase Nek5 (Homo sapiens) (UniProt Q6P3R8).
T3 sequence (whole entry): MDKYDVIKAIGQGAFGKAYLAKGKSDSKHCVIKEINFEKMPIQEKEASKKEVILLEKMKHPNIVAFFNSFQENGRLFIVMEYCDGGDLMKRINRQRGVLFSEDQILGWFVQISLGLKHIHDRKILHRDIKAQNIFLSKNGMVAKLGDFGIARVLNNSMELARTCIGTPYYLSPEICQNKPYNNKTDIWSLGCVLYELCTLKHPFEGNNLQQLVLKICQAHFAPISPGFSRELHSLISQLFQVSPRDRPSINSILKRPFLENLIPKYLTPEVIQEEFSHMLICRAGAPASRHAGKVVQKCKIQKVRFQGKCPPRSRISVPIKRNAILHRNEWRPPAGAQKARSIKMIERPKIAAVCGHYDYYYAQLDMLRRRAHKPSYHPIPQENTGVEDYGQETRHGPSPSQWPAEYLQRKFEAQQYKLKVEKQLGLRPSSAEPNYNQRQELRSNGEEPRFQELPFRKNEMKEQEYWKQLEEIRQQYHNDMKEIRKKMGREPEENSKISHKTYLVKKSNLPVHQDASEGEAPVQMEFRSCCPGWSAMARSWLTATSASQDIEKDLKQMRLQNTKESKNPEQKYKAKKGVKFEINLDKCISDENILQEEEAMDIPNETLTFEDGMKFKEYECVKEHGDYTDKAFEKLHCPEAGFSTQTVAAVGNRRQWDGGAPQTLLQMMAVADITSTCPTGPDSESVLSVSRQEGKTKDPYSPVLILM
Put plainly: Selectivity interaction (KinomeScan (DiscoverX)) EUB0000092b NEK5. To be noted: at 10 µM.

Experiment [5] has as its target Dual specificity mitogen-activated protein kinase kinase 2 (Homo sapiens) (UniProt P36507). Put plainly: Selectivity interaction (KinomeScan (DiscoverX)) EUB0000092b MAP2K2. To be noted: at 10 µM.
The target in experiment [6] is TGF-beta receptor type-2 (Homo sapiens) (UniProt P37173). Description: Selectivity interaction (KinomeScan (DiscoverX)) EUB0000092b TGFBR2. To be noted: at 10 µM.
Sequence of TGF-beta receptor type-2 (Homo sapiens) (P37173 whole entry): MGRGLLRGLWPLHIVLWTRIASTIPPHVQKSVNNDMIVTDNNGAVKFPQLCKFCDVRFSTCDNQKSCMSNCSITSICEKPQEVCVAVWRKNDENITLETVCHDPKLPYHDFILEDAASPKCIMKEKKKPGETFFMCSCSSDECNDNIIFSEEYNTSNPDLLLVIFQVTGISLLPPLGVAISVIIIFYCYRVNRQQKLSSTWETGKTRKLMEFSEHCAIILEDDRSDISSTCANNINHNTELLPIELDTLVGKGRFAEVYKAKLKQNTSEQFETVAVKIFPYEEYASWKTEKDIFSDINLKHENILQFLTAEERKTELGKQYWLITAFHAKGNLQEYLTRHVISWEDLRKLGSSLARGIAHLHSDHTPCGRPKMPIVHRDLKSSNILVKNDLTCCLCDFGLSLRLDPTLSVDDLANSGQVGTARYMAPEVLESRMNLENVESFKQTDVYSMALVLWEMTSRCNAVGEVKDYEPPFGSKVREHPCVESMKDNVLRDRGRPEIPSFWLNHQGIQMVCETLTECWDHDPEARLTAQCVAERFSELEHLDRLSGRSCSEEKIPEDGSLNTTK
Experiment [7] deals with Serine/threonine-protein kinase OSR1 (Homo sapiens) (UniProt O95747). Description: Selectivity interaction (KinomeScan (DiscoverX)) EUB0000695a OXSR1. To be noted: at 100 nM.
In experiment [8] the target is Protein kinase C theta type (Homo sapiens, UniProt Q04759). Put plainly: Selectivity interaction (KinomeScan (DiscoverX)) EUB0000045b PRKCQ.
Sequence of Protein kinase C theta type (Q04759 whole entry, looked up): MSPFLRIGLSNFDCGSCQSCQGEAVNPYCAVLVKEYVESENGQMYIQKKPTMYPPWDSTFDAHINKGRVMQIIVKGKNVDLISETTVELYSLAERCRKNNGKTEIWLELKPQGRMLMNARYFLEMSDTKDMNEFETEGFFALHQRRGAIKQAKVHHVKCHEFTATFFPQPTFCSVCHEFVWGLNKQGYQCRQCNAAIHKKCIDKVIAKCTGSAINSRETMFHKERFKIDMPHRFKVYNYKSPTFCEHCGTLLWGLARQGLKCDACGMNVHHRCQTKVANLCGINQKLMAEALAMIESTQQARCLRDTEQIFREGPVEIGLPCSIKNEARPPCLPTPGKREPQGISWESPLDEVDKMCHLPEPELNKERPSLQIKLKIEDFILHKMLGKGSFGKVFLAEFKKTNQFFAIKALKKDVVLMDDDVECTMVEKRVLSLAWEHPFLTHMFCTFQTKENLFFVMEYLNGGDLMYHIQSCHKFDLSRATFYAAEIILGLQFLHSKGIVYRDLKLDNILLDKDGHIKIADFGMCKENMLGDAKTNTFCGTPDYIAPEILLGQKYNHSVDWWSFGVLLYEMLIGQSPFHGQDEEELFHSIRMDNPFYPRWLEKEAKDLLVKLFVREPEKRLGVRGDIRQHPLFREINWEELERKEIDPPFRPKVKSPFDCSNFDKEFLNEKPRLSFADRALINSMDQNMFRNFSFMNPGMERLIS
Experiment [9] deals with Tyrosine-protein kinase Fer (Homo sapiens) (UniProt P16591). Description: Selectivity interaction (ActivX KiNativ screen (kinase selectivity in THP-1 cell lysates)) EUB0000639a FER. Format: subcellular. To be noted: lysate.
Sequence of Tyrosine-protein kinase Fer (Homo sapiens) (P16591 whole entry, looked up): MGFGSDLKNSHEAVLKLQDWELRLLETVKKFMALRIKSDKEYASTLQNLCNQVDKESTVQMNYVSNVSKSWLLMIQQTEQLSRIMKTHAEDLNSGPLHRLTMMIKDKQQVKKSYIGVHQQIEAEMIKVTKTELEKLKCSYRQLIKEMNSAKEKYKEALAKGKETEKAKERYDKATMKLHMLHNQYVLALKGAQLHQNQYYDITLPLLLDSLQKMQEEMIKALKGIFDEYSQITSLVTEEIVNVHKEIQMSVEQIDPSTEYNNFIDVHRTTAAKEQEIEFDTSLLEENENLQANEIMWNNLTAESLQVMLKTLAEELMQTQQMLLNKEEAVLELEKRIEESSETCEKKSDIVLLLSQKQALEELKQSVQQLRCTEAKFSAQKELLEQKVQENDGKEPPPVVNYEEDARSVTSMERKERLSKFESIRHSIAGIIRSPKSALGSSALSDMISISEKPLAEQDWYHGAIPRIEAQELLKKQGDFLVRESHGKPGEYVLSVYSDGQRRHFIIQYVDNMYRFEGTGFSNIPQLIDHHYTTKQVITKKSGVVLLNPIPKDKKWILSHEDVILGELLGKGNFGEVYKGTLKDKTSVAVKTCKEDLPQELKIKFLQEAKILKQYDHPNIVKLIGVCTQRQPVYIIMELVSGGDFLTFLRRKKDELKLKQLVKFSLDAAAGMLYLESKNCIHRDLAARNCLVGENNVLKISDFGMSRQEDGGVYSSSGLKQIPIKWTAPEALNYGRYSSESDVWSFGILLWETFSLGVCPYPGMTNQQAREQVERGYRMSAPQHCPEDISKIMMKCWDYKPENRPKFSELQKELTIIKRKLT
In experiment [10] the target is Ribosomal protein S6 kinase alpha-3 (Homo sapiens, UniProt P51812). Description: Selectivity interaction (Kinase panel (Invitrogen)) EUB0000639a RPS6KA3. To be noted: at 200 nM.
Sequence of Ribosomal protein S6 kinase alpha-3 (P51812 whole entry): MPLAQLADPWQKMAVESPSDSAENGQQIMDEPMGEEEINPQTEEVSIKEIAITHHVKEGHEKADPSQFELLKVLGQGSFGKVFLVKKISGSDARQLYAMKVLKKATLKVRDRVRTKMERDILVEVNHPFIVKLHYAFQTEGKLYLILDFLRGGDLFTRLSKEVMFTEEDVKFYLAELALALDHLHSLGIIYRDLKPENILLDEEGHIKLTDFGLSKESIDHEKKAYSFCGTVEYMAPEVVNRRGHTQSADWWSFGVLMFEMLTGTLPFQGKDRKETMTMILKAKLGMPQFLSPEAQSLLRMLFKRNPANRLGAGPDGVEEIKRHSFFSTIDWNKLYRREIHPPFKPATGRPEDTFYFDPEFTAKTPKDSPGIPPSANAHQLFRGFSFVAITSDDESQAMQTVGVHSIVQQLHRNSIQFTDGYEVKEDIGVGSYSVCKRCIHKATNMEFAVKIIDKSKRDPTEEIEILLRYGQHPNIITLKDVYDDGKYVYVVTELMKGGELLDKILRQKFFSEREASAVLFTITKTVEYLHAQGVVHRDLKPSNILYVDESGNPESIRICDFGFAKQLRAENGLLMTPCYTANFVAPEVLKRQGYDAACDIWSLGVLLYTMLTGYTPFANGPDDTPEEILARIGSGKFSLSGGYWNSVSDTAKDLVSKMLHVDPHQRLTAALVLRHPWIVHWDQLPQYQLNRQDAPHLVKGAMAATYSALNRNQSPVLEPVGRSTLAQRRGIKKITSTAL
The target in another experiment is Ephrin type-A receptor 4 (Homo sapiens, UniProt P54764). Put plainly: Selectivity interaction (Kinase panel (33PanQinase(R) Activity Assay)) EUB0000877a EPHA4.
Sequence of Ephrin type-A receptor 4 (P54764 whole entry): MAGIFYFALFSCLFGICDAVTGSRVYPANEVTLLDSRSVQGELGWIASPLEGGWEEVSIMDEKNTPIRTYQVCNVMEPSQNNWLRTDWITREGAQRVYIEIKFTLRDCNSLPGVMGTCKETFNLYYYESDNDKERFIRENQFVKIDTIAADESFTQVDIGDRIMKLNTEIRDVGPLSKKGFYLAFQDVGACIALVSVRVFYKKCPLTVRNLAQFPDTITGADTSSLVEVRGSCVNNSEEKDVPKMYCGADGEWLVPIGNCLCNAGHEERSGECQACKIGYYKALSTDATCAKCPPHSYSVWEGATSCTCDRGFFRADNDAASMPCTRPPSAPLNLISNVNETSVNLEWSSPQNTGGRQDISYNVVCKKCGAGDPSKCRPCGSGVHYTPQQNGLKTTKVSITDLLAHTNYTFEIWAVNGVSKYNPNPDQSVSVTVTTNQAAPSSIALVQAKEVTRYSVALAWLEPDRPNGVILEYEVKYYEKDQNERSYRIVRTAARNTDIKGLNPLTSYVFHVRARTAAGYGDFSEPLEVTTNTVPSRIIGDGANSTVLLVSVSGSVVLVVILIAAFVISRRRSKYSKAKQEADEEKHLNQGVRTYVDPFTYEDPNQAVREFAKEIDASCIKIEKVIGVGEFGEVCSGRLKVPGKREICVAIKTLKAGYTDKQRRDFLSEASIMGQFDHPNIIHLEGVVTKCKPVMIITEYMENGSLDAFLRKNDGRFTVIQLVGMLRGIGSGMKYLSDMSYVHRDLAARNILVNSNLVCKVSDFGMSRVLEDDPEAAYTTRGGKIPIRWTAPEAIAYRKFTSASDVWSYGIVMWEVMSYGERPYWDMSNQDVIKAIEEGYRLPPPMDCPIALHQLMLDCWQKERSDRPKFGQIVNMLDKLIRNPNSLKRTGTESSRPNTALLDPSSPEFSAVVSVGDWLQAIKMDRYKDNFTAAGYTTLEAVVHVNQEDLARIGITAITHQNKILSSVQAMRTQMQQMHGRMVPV
Experiment [11] deals with AP2-associated protein kinase 1 (Homo sapiens, UniProt Q2M2I8). Description: Selectivity interaction (Kinase panel (DSF assay)) EUB0001489b AAK1. A general note: Differential scanning fluorimetry follows unfolding on heating by fluorescence.
The target in experiment [12] is Mitogen-activated protein kinase 8 (Homo sapiens, UniProt P45983). Put plainly: Selectivity interaction (Kinase panel (literature)) EUB0001199aCl MAPK8. Particulars: at 1 µM.
Sequence of Mitogen-activated protein kinase 8 (P45983 whole entry): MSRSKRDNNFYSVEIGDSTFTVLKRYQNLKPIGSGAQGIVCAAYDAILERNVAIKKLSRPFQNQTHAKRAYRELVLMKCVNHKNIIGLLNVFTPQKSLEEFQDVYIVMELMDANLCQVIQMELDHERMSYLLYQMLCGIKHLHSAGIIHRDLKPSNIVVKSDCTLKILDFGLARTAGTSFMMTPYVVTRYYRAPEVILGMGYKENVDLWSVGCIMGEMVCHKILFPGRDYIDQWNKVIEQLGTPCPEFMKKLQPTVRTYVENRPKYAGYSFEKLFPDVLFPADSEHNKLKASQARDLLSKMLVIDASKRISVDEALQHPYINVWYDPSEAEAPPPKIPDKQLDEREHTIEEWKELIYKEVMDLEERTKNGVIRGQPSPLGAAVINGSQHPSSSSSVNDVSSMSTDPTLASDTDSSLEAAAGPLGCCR

Sequence of Dual specificity mitogen-activated protein kinase kinase 2 (Homo sapiens) (P36507 whole entry): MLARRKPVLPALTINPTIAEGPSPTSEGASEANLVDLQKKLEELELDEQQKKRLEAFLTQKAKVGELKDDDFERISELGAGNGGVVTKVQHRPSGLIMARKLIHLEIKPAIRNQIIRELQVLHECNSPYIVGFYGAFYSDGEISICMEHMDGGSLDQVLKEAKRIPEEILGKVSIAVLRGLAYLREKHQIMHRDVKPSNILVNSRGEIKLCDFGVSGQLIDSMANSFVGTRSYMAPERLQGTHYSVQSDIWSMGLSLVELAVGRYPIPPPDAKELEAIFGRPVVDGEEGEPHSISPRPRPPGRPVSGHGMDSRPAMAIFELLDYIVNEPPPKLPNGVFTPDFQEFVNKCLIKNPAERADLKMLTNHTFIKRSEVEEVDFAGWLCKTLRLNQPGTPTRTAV

As to `CCN(CC)CCCCNc1ncc2cc(-c3cc(OC)cc(OC)c3)c(NC(=O)NC(C)(C)C)nc2n1`, in [1], the % of control was found to be 100%.

Consider `Nc1cnc(N2CCc3cc(S(=O)(=O)Nc4c(F)cc(Cl)cc4F)cc(N4CCCC4=O)c32)nc1` [TP-020n], for which the % of control is 99% in experiment [2] and 80% in experiment [3].

Regarding `CCC(=O)N1CCN(c2ccc(-n3c(=O)ccc4cnc5ccc(-c6cnc7ccccc7c6)cc5c43)cc2C(F)(F)F)CC1`, the figures for the % of control in [4], in experiment [5] and in experiment [6] were 5.8%, 100% and 77%, respectively.

`Cc1cc(F)c(C(=O)Nc2cccc(-c3nncn3C(C)C)n2)cc1-n1cnc(C2CC2)c1`: the % of control in experiment [7] worked out at 86%.

Take `C=CC(=O)Nc1cc(-n2c(=O)ccc3cnc4ccc(-c5ccc(NS(C)(=O)=O)cc5)cc4c32)ccc1C`: the % of control stood at 100% in [8] (at 1 µM) and 76% in [8] (at 10 µM).

In the case of `CC[C@@H]1[C@H](F)C(=O)N[C@@H]1COc1nccc2cc(C(N)=O)c(OC)cc12` [ZIMLOVISERTIB], the % of inhibition in experiment [9] (at 0.01 µM) was -9.6%; in experiment [9] (at 0.04 µM), 0.8%; in [9] (at 0.2 µM), -7.6%; in experiment [9] (at 1 µM), 15.7%; in experiment [9] (at 5 µM), 10.9%; in experiment [10] it was -6.31%.

Molecule `CCC(=O)N1CC[C@H](Nc2ncnc3c2CN(c2cnc(OC)c(C(F)(F)F)c2)CC3)C1` [LENIOLISIB] gave an IC50 against Ephrin type-A receptor 4 greater than 10 µM.

`CN1CCN(C(=O)c2ccc3cc2OCCOCCNc2ccn4ncc-3c4n2)CC1` registered a dTM in experiment [11] of 4.2 K.

Take `CN1Cc2nccc(-c3cn(C)nc3-c3ccc(F)cc3)c2C1=O`: the % of inhibition in experiment [12] was -2%.
